The test system of data set [1] is hydrolysis of SH-11037 in dog plasma. Type of data set: in vitro ADME. The conditions noted are these: beagle, 2 h, 1 µM, pH 7.4. As for the experimental part: (§1) Chemical inhibition assay was conducted in mouse, dog, and human plasma and mouse eye homogenate to identify the enzyme(s) involved in the hydrolysis of SH-11037. BW284c51 [16], DTNB [17], EPZ [18], and BNPP [19, 20] were used as selective inhibitors of acetylcholinesterase (AChE), paraoxonase 1 (PON1), butyrylcholinesterase (BchE), and carboxylesterase (CES), respectively. Mouse eyes (male ICR mouse, 8 weeks old) taken immediately after CO2 asphyxiation were homogenized by an electric tissue homogenizer (Tissue Master-125, Omni International, Kennesaw, GA, USA) in an equal amount of 0.1 M potassium phosphate buffer (pH 7.4) on ice. The resulting homogenate was then centrifuged at 3000× g for 20 min. The supernatant was stored at −80 °C until the experiment. DMSO stock solutions of the inhibitors (0.4, 4 and 40 mM) were mixed with plasma diluted 3-fold with 0.1 M phosphate buffer (pH 7.4) to a final volume of 160 μL and final inhibitor concentrations of 0.01, 0.1, and 1 mM. The supernatant of mouse eye homogenate was treated similarly with only BNPP as the inhibitor and a single inhibitor concentration of 1 mM. The resulting pre-incubation solutions were then incubated for 2 h at 37 °C in a shaking water bath. SH-11037 (40 μM) in 50 vol% aqueous CH3CN was mixed with the pre-incubation solutions to a final volume of 160 μL and a final concentration of 1 μM. The resulting solutions were then incubated at 37 °C in a shaking water bath. The incubations were terminated at selected times by adding 160 µL of ice-cold CH3CN containing glipizide (500 ng/mL) as the IS. The resulting mixture was vortexed, sonicated, and centrifuged at 3000× g for 20 min. Aliquots of the supernatant were subjected to LC-MS/MS analysis described below in Section 2.6.2.
(§2) The LC-MS/MS system consisted of Agilent 1290 Infinity HPLC system and Agilent 6530 Accurate-Mass Quadrupole Time-of-Flight (Q-TOF) mass spectrometer equipped with dual AJS ESI ion source (Agilent Technologies Korea, Seoul, Korea). Chromatographic separation was performed on an Agilent Eclipse Plus C18 column (2.1 × 100 mm, 3.5 μm) with a Phenomenex Security Guard C18 guard column (4 × 20 mm) maintained at 40 °C. The mobile phase consisted of 0.1% formic acid in deionized water (A) and 0.1% formic acid in CH3CN (B): 0~2 min 5% B, 2~7 min to 95% B, and 7~10 min 95% B. Total run time including a 5 min equilibration time was 15 min. The flow rate was 0.4 mL/min. The injection volume was 5 µL. The mass spectrometer was operated in a positive Auto MS/MS scan mode with a full scan mass range of m/z 100–1000, fragmentor voltage 150 V, and CE 30 eV, selecting the two most intense precursor ions for collision-induced dissociation. Putative metabolites were identified using Agilent Mass Hunter Metabolite ID software (ver.B.04.00) followed by manual interpretation of the spectral data. Chromatograms and mass spectra were extracted using Agilent Mass Hunter Qualitative Analysis software (ver. B.05.00).

Data set [2] concerns hydrolysis of SH-11037 in mouse plasma. Type of data set: in vitro ADME. The settings on record: ICR, mouse, 1 min, 1 µM, pH 7.4. As for the experimental part:
as §1, §2

The format of data set [3] is in vitro ADME. The conditions noted are these: male, ICR, mouse, 1 min, 1 µM, pH 7.4. As for the experimental part: as §1, §2
A short description of data set [4]: Stability of SH-11037 in 0.1 M phosphate buffer (pH 7.4). Type of data set: physicochemical. As for the experimental part: (§3) SH-11037 (1 μM) was incubated in triplicate in 0.1 M phosphate buffer (pH 7.4) or in mouse, dog, and human plasma to investigate its stability. SH-11037 (40 μM) in 50 vol% aqueous CH3CN was mixed with 0.1 M phosphate buffer (pH 7.4) or plasma diluted 3-fold with 0.1 M phosphate buffer (pH 7.4) to a final volume of 160 μL and a final concentration of 1 μM. The resulting solutions were then incubated at 37 °C in a shaking water bath. The incubations were terminated at selected times by adding 160 µL of ice-cold CH3CN containing glipizide (500 ng/mL) as the internal standard (IS). The resulting mixture was vortexed, sonicated, and centrifuged at 3000× g for 20 min. Aliquots of the supernatant were subjected to LC-MS/MS analysis described below in Section 2.6.2.
(§4) The LC-MS/MS system consisted of Agilent 1290 Infinity HPLC system and Agilent 6530 Accurate-Mass Quadrupole Time-of-Flight (Q-TOF) mass spectrometer equipped with dual AJS ESI ion source (Agilent Technologies Korea, Seoul, Korea). Chromatographic separation was performed on an Agilent Eclipse Plus C18 column (2.1 × 100 mm, 3.5 μm) with a Phenomenex Security Guard C18 guard column (4 × 20 mm) maintained at 40 °C. The mobile phase consisted of 0.1% formic acid in deionized water (A) and 0.1% formic acid in CH3CN (B): 0~2 min 5% B, 2~7 min to 95% B, and 7~10 min 95% B. Total run time including a 5 min equilibration time was 15 min. […]

Data set [5] can be described thus: Stability of SH-11037 in mouse plasma. The class given is in vitro ADME. The settings on record: ICR, pH 7.4, SH-11037 1 µM, 37 °C, read-out: half-life (t1/2) of hydrolysis to SH-11008. Here is the method:
as §3, §4

The nature of data set [6]: Metabolic stability of SH-11008 in mouse liver S9 fractions. Type of data set: in vitro ADME. Here is the method:
For studies using NADPH or PAPS as a cofactor, 4 μL of SH-11008 (40 μM) solution in 40 vol% CH3CN were mixed with 40 μL of 4 mg protein/mL HLS9 or MLS9 fractions diluted in 0.1 M potassium phosphate buffer (pH 7.4) and 100 μL of 0.1 M potassium phosphate buffer (pH 7.4). When using UDPGA as a cofactor, 32 μL of UGT Reaction Mix Solution B and 68 μL of de-ionized water were used instead of 100 μL of 0.1 M potassium phosphate buffer (pH 7.4). The mixture was warmed at 37 °C for 5 min. The reaction was then initiated by adding 16 μL of 10 mM cofactor dissolved in de-ionized water. The assay condition for UDPGA was used for metabolic stability studies conducted with a mixture of the three cofactors. The reaction was terminated at selected times by adding 160 μL of ice-cold CH3CN containing glipizide (500 ng/mL) as the IS. The resulting mixture was vortexed, sonicated, and centrifuged at 3000× g for 20 min. Aliquots of the supernatant were subjected to LC-MS/MS analysis described below in Section 2.6.2.
as §2
Pharmacokinetic parameters were calculated by noncompartmental analysis of plasma concentration versus time profiles using PKSolver. The scaling factors of mice and human, half-life (t1/2), intrinsic clearance (CLint), hepatic clearance (CLH), and hepatic extraction ratio (EH) were from the in vitro studies as described previously. […] The fraction of parent drug converted to the metabolite (fm) was calculated as follows:fm (%) = (AUC(m) × CL(m))/D × MWparent/MWmetabolite × 100,(1) where D is dose of the parent drug, AUC(m) is area under the curve for the metabolite after a dose of parent drug, CL(m) is CL of metabolite, and MW is molecular weight.

Data set [7] relates to human microvascular retinal endothelial cell proliferation. More on the design: method as in PMID 26035340. The conditions noted are these: less potent than SH-11037; cited from earlier work.

Molecules are shown by their SMILES.

Usually CLint scaled stands for the rate of metabolic loss divided by the concentration. Read a high CLint scaled as faster metabolism.

Take `COc1ccc(CC2COc3cc(OC)c(OC)c(OC)c3C2=O)cc1OC(=O)[C@H](Cc1ccccc1)NC(=O)OC(C)(C)C` (stereo partly drawn) [SH-11037]: the “SH-11008 Formation (%), % of SH-11037 converted to SH-11008” value is listed as 91.7 ± 1.2% in data set [1] and 98.3 ± 2.8% in data set [2]. For the same molecule, the “SH-11037 converted to SH-11008” value in data set [3] is on record as ~ 90%. The molecule further displayed an SH-11037 remaining in data set [4] (1 µM, 0.1 M phosphate buffer pH 7.4, 1 h incubation at 37 °C) of approximately 100%. In addition, the “SH-11008 formation in buffer” value in data set [4] (SH-11037 1 µM, pH 7.4 buffer, 1 h at 37 °C) is on record as “not detected”. Besides, in data set [5], the half-life at 1 µM is 0.018 min.
Turning to `COc1ccc(CC2COc3cc(OC)c(OC)c(OC)c3C2=O)cc1O` (stereo not drawn) [SH-11008], in data set [6] (CD-1, liver S9 fractions, pH 7.4, mouse, scaled from in vitro t1/2 in MLS9), the CLint scaled at 1 µM is 1510 mL/min/kg. The half-life at 1 µM in data set [6] (CD-1, mouse, liver S9 fractions, SH-11008 1 µM, MLS9 1 mg protein/mL, mixture of NADPH, UDPGA and PAPS (1 mM), 37 °C) stood at 5.7 min. Further, the “metabolic stability with cofactor added individually” value in data set [6] (MLS9, NADPH, UDPGA or PAPS 1 mM individually, 30 min) is “metabolized rapidly”. In data set [6] (mouse, predicted hepatic extraction ratio from MLS9 data), the EH is listed as 0.94. Also, the CLH in data set [6] (mouse, predicted with the well-stirred model from MLS9 data) is reported as 84.9 mL/min/kg. The “inhibitory activity on cell proliferation” value in data set [7] is recorded as “good inhibitory activity”.

The record behind these values is paper PMC9697349, “Mouse Pharmacokinetics and In Vitro Metabolism of SH-11037 and SH-11008, Synthetic Homoisoflavonoids for Retinal Neovascularization” (Pharmaceutics, 2022).
